Test results: paper PMC4263554, “A Comparative Study of Impedance versus Optical Label-Free Systems Relative to Labelled Assays in a Predominantly Gi Coupled GPCR (C5aR) Signalling” (Biosensors, 2012)
Where “and” joins values, the source holds several entries; their conditions need not be identical. Equal entries are not always repeated. Entries after “also recorded” stand apart in the source; their conditions may differ. Non-standard residues stand in square brackets, D forms with d. Residues, ends and D or L forms follow the SMILES beside them. d1Nal = N[C@H](Cc1cccc2ccccc12)C(=O)O; NMeF = CN[C@@H](Cc1ccccc1)C(=O)O; dCha = N[C@H](CC1CCCCC1)C(=O)O

Tests used:
[1] = biological target: T1, human C5aR (Homo sapiens, UniProt P21730); assay: 125I-C5a competitive receptor binding (SPA) on HMDM; conditions: for IC50: 25 pM 125I-C5a, 95% confidence intervals in brackets
T1 construct: host or cells: CHO cells, stably transfected (G418 selection)
T1 sequence (P21730 1-350): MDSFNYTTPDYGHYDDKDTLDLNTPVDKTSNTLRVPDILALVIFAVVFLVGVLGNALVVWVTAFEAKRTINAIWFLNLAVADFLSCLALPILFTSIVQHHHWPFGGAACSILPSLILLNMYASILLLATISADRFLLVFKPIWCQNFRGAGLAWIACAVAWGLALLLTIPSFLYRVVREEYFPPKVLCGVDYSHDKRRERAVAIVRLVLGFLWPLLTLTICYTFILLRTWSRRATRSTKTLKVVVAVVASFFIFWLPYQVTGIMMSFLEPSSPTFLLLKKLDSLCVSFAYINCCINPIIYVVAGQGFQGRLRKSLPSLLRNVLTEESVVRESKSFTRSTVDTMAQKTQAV
Text: (§1) The scintillation proximity assay (SPA) was used to study ligand binding interactions with the receptor. The basic principle of the assay involved coupling receptor membrane preparations to coated SPA beads. When a radiolabelled ligand, which is able to bind to the receptor coupled onto the SPA bead, interacts with the receptor it will be close enough in proximity to activate the SPA bead. The radiolabel emits radiation that leads to the production of a light signal by activation of the scintillant in the bead. More specifically for our studies, receptor binding studies were performed using Polyvinyltoluene (PVT) scintillation beads, which have wheat germ agglutinin (WGA) covalently attached on the surface (Perkin Elmer). These beads allow for the development of a homogeneous GPCR radioligand binding assay using cellular membranes or whole cells. Briefly, receptor SPA studies were performed in 96-well white isoplates with clear flat bottoms (Perkin Elmer). ^125I-C5a (~25 pM) (specific activity, 2,200 Ci/mmol) (Perkin Elmer) was added to either CHO-C5aR membrane preparations (~2 µg/well) or HMDM (25,000 cells/well). SPA beads (200 µg/well) were then added, followed by the addition of various concentrations of competing ligands (6 pM to 100 µM) in a total volume of 80 µL of buffer A (CHO-C5aR) or B (HMDM) (50 mM Tris-HCl, pH 7.4, 0.5% BSA, and either 5 mM MgCl2, 1 mM CaCl2 (A) or 3 mM MgCl2, 0.1 mM CaCl2 (B)). The final reaction volume per well comprised 20 µL of ligand/buffer, 20 µL of PVT WGA SPA beads, 20 µL of membrane/cells and the assay was initiated by the addition of 20 µL of ^125I-C5a. The plate was then sealed using TopSeal-A (Perkin Elmer) sealing film and incubated with shaking for 1 h at room temperature. Radioligand binding was then assessed for 30 s/well using a 1450 Microbeta scintillation counter (Perkin Elmer). All binding and subsequent assay data, unless stated otherwise, was analysed using GraphPad Prism 5.0c (GraphPAD Software Inc., San Diego, CA, USA).

[2] = biological target: T1, human C5aR; assay: 125I-C5a competitive receptor binding (SPA) on CHO-C5aR membranes; conditions: for IC50: CHO-C5aR membranes, 25 pM 125I-C5a, 95% confidence intervals in brackets
Procedure: Membranes were prepared from CHO-C5aR cells by modification of a previously described method. Briefly, cells were washed with PBS, pH 7.4, and harvested into buffer (50 mM Tris-HCl, pH 7.4, 5 mM MgCl2, 1 mM CaCl2) before homogenising with a Polytron homogeniser for 3 min on setting 22. Cells were centrifuged at 150× g for 5 min at 4 °C. The supernatant was recovered and centrifuged at 22,000× g for 1 h at 4 °C. Membrane pellets were then resuspended in 0.4 mL of ice-cold assay buffer A (50 mM Tris-HCl, pH 7.4, 5 mM MgCl2, 1 mM CaCl2, 0.5% bovine serum albumin (BSA) (Sigma Aldrich) containing 10% glycerol) with aliquots stored at −80 °C. The protein concentration of the membrane preparations was determined by the Bradford method.
as §1

[3] = biological target: T1, human C5aR; assay: Alphascreen SureFire phospho-ERK1/2 assay in HMDM; assay type: cell-based; conditions: for EC50: 95% confidence intervals in brackets, read-out: ERK (EC50)
Procedure: (§2) Alphascreen (Amplified Luminescent Proximity Homogeneous Assay Screen) SureFire phospho-ERK1/2 assay was performed according to manufacturers’ instructions (Perkin Elmer). AlphaScreen involves the use of two beads, denoted the donor and acceptor beads. When both beads are bound as a pair to an analyte and the donor bead is excited, a singlet oxygen is released which activates the acceptor bead. As there is a distance constraint here, only beads in close proximity can lead to further reactions that produce the detectable chemiluminescent signal. Briefly, HMDM and CHO-C5aR cells were serum starved and incubated in 96-well tissue culture plates (Nunc) overnight at 60,000 and 50,000 cells/well, respectively. Ligands were prepared in serum-free media at a final DMSO concentration of 1%. Ligands were incubated at room temperature for 10 and 15 min with HMDM and CHO-C5aR, respectively. Media was removed and cells were lysed with lysis buffer for 10 min on a shaker, 4 μL of lysate was transferred to a white 96-well half area plate (Perkin Elmer) and incubated in the presence of 7 μL of reaction mix. The plate was sealed with TopSeal-A, incubated for 2 h at 37 °C and measured on an Envision plate reader (Perkin Elmer). Each data point was performed in triplicate and repeated in at least three separate experiments.

[4] = biological target: T1, human C5aR; assay: Alphascreen SureFire phospho-ERK1/2 assay in CHO-C5aR cells; assay type: cell-based; conditions: for EC50: 95% confidence intervals in brackets, read-out: ERK (EC50)
Procedure: as §2

[5] = biological target: T1, human C5aR; assay: EPIC label-free optical system on HMDM; assay type: cell-based; conditions: peak response ~5 min, 95% confidence intervals in brackets
Procedure: (§3) HMDM were seeded, at 50,000 cells/well and CHO-C5aR and CHO-K1 at 7,500 cells/well, into fibronectin-coated cell-based EPIC® plates (Corning) and incubated overnight. Prior to ligand addition, media was exchanged for HBSS (Invitrogen Life Technologies): 20 mM HEPES (Sigma Aldrich) buffer, supplemented with 0.5% DMSO, and allowed to equilibrate at 26 °C for 1 h (HMDM) or 2 h (CHO-C5aR and CHO-K1) within the instrument. Agonists were prepared at a final DMSO concentration of 0.5% in HBSS:HEPES buffer. After ligand addition, measurements were taken continuously for 1–2 h at 26 °C. Peak amplitude response (Figure 2) was measured for data analysis using Corning EPIC® software.

[6] = biological target: T1, human C5aR; assay: EPIC label-free optical system on CHO-C5aR cells; assay type: cell-based; conditions: peak response ~5 min, 95% confidence intervals in brackets
Procedure: as §3

[7] = biological target: T1, human C5aR; assay: xCELLigence label-free impedance system on HMDM; assay type: cell-based; conditions: predominant peak ~3.5 min, 95% confidence intervals in brackets
Procedure: (§4) HMDM were seeded at 30,000 cells/well, CHO-C5aR at 5,000 cells/well and CHO-K1 at 7,500 cells/well and incubated overnight in 384-well E-Plates (Roche). Ligand preparation and cell treatment was as described for the EPIC® protocol above. However, during the buffer exchange equilibration steps, cells were kept in the incubator at 37 °C with 5% CO2. HMDM were media exchanged with serum-free IMDM and incubated for 2 h prior to ligand addition with recordings at 37 °C. Ligands for the HMDM experiments were prepared in serum-free media. To ensure consistency with the EPIC® data, time point for data analysis was determined by a number of different factors, mainly maximum response of predominant peak (Figure 2), but point at which the EC50 was stable over this time according to the RTCA software was also used to confirm the time point

[8] = biological target: T1, human C5aR; assay: xCELLigence label-free impedance system on CHO-C5aR cells; assay type: cell-based; conditions: predominant peak ~3.5 min, 95% confidence intervals in brackets
Procedure: as §4

[9] = system: C5aR; set-up: method as in PMID 7930622; conditions: neutrophils; cited from earlier work
[10] = system: C5aR; conditions: different cell types and assay platforms; cited from earlier work

With `CN[C@@H](Cc1ccccc1)C(=O)N[C@@H](CCCCN)C(=O)N1CCC[C@H]1C(=O)N[C@H](CC1CCCCC1)C(=O)N[C@H](CC1CCCCC1)C(=O)N[C@H](CCCNC(=N)N)C(=O)O` [Peptide agonist, NMePhe-Lys-Pro-dCha-dCha-dArg-COOH] (H-[NMeF]KP[dCha][dCha][dR]-OH) the IC50 [1] was 132 nM, the IC50 [2] was 47 nM and the “ERK response relative to the native ligand C5a (efficacy)” value [3] was “characteristics of a partial agonist; also recorded: partial agonist activity”. The EC50 [3] was 120 nM, the “ERK EC50 relative to that of C5a” value [4] was ~ 30 fold and the “ERK response relative to the native ligand C5a (efficacy)” value [4] was “potentiation of the response relative to the native ligand”. For the same molecule, the EC50 [4] was 5 nM, the EC50 [5] was 563 nM and the EC50 [6] was 347 nM. For the same molecule, the EC50 [7] was 546 nM, the EC50 [8] was 351 nM and the “Functional character in myeloperoxidase release” value [9] was “full agonist”.

For `CN[C@@H](Cc1ccccc1)C(=O)N[C@@H](CCCCN)C(=O)N1CCC[C@H]1C(=O)N[C@H](CC1CCCCC1)C(=O)N[C@H](Cc1cccc2ccccc12)C(=O)N[C@H](CCCNC(=N)N)C(=O)O` [Peptide partial agonist, NMePhe-Lys-Pro-dCha-dNal-dArg-COOH] (H-[NMeF]KP[dCha][d1Nal][dR]-OH), the “ERK response relative to the native ligand C5a (efficacy)” value [3] was “approximately half of the response relative to C5a” and the “ERK response relative to the native ligand C5a (efficacy)” value [4] was “approximately half of the response relative to C5a”.

In the case of C5a des-Arg, the “Difference in binding IC50 relative to C5a” value [1] is given as ~ 2 fold, the “Difference in binding IC50 relative to C5a” value ([2]; CHO-C5aR) is given as ~ 6 fold and the “Reduction in potency compared to C5a” value [10] is given as 10–1,000 fold.

B1: C5a des-Arg (protein)
chain: TLQKKIEEIAAKYKHSVVKKCCYDGACVNNDETCEQRAARISLGPRCIKAFTECCVVASQLRANISHKDMQLG
modifications: glycosylated (N-glycan at Asn64 of C5a, Asn741 of precursor, by convention); three intrachain disulfides
notes: C5a minus its C-terminal arginine, purchased from Merck
For B1, the IC50 [1] was 2.5 nM, the IC50 [2] was 1.2 nM and 1.23 nM and the EC50 [3] was 0.55 nM. It also gave an EC50 [4] of 2 nM, an EC50 [5] of 47 nM and an EC50 [6] of 11 nM. The EC50 [7] was 20 nM and the EC50 [8] was 44 nM.

B2: C5a: endogenous 74 residue protein ligand of human C5aR, purchased from Sigma Aldrich and Sino Biological Inc (protein, UniProt P01031 678-751, looked up)
C5a anaphylatoxin: TLQKKIEEIAAKYKHSVVKKCCYDGACVNNDETCEQRAARISLGPRCIKAFTECCVVASQLRANISHKDMQLGR
modifications: C5a anaphylatoxin
notes: endogenous 74 residue protein ligand of human C5aR, purchased from Sigma Aldrich and Sino Biological Inc
Work on B2 yielded an IC50 [1] of 1.2 nM, an IC50 [2] of 0.2 nM and an EC50 [3] of 0.47 nM. The EC50 [4] was 0.15 nM, the EC50 [5] was 107 nM and the EC50 [6] was 24 nM. The EC50 [7] was 89 nM and the EC50 [8] was 16 nM.
